Reference: ChEMBL document CHEMBL3046568, “Synthesis, antimicrobial and DNA cleavage studies of some 4-aryloxymethylcoumarins obtained by reaction of 4-bromomethylcoumarins with bidentate nucleophiles” (2012)
In brackets after ≈: the same amount, converted by molar mass. Activity calls are given as the source filed them. No cut-off for these calls is given here.

What was measured:
[1] = tested on: Bacillus subtilis; assay: Antibacterial activity against Bacillus subtilis MTCC 297 after 24 hr by disk diffusion method; format: functional; settings: for MIC: Bacillus subtilis, MTCC 297, 24 h
[2] = tested on: Candida albicans; assay: Antifungal activity against Candida albicans after 3 to 4 days by serial dilution method; format: functional; settings: for MIC: Candida albicans
[3] = tested on: Escherichia coli; assay: Induction of Escherichia coli MTCC 1089 DNA cleavage at 50 ug after 2 hr by agarose gel electrophoresis
[4] = tested on: Mucor fuscus; assay: Antifungal activity against Mucor fuscus after 3 to 4 days by serial dilution method; format: functional; settings: for MIC: Mucor fuscus
[5] = tested on: Escherichia coli; assay: Antibacterial activity against Escherichia coli MTCC 1089 after 24 hr by disk diffusion method; format: functional; settings: for MIC: Escherichia coli, MTCC 1089, 24 h
[6] = tested on: Aspergillus niger; assay: Antifungal activity against Aspergillus niger after 3 to 4 days by serial dilution method; format: functional; settings: for MIC: Aspergillus niger
[7] = tested on: Pseudomonas aeruginosa; assay: Antibacterial activity against Pseudomonas aeruginosa MTCC 1034 after 24 hr by disk diffusion method; format: functional; settings: for MIC: Pseudomonas aeruginosa, MTCC 1034, 24 h
[8] = tested on: Fusarium oxysporum; assay: Antifungal activity against Fusarium oxysporum after 3 to 4 days by serial dilution method; format: functional; settings: for MIC: Fusarium oxysporum
[9] = tested on: Enterococcus faecalis; assay: Antibacterial activity against Enterococcus faecalis MTCC 3382 after 24 hr by disk diffusion method; format: functional; settings: for MIC: Enterococcus faecalis, MTCC 3382, 24 h
[10] = tested on: Klebsiella pneumoniae; assay: Antibacterial activity against Klebsiella pneumoniae MTCC 3384 after 24 hr by disk diffusion method; format: functional; settings: for MIC: Klebsiella pneumoniae, MTCC 3384, 24 h
[11] = tested on: Staphylococcus aureus; assay: Antibacterial activity against Staphylococcus aureus MTCC 3160 after 24 hr by disk diffusion method; format: functional; settings: for MIC: Staphylococcus aureus, MTCC 3160, 24 h
[12] = tested on: Staphylococcus aureus; assay: Induction of Staphylococcus aureus MTCC 3160 DNA cleavage at 50 ug after 2 hr by agarose gel electrophoresis
[13] = tested on: Aspergillus fumigatus; assay: Antifungal activity against Aspergillus fumigatus after 3 to 4 days by serial dilution method; format: functional; settings: for MIC: Aspergillus fumigatus
[14] = tested on: Aspergillus niger; assay: Induction of Aspergillus niger DNA cleavage at 50 ug after 2 hr by agarose gel electrophoresis
[15] = tested on: Penicillium chrysogenum; assay: Antifungal activity against Penicillium chrysogenum after 3 to 4 days by serial dilution method; format: functional; settings: for MIC: Penicillium chrysogenum

SMILES | inhibition zone (IZ) [1] [mm] | MIC [1] [µg/mL] | inhibition zone (IZ) [2] [mm] | MIC [2] [µg/mL] | inhibition zone (IZ) [4] [mm] | MIC [4] [µg/mL] | inhibition zone (IZ) [5] [mm] | MIC [5] [µg/mL] | inhibition zone (IZ) [6] [mm] | MIC [6] [µg/mL] | inhibition zone (IZ) [7] [mm] | inhibition zone (IZ) [8] [mm] | MIC [8] [µg/mL] | inhibition zone (IZ) [9] [mm] | MIC [9] [µg/mL] | inhibition zone (IZ) [10] [mm] | MIC [10] [µg/mL] | inhibition zone (IZ) [11] [mm] | inhibition zone (IZ) [13] [mm] | MIC [13] [µg/mL] | also measured
CC(=O)Nc1cccc(OCc2cc(=O)oc3c2ccc2ccccc23)c1 | 13 | 12.5 (≈ 34.8 µM) | 16 | 12.5 (≈ 34.8 µM) | 16 | 12.5 (≈ 34.8 µM) | 13 | 25 (≈ 69.6 µM) | 19 | 6.25 (≈ 17.4 µM) | 19 | 11 | 50 (≈ 139 µM) | 12 | 25 (≈ 69.6 µM) | 15 | 12.5 (≈ 34.8 µM) | 12 | 17 | 12.5 (≈ 34.8 µM) | Activity [3]: inactive; MIC [7]: 6.25 µg/mL (≈ 17.4 µM); MIC [11]: 25 µg/mL (≈ 69.6 µM); Activity [12]: inactive; Activity [14]: inactive; inhibition zone (IZ) [15]: 18 mm; MIC [15]: 12.5 µg/mL (≈ 34.8 µM)
CC(=O)Nc1cccc(OCc2cc(=O)oc3ccc(C)cc23)c1 | 15 | 12.5 (≈ 38.7 µM) | 9 | 25 (≈ 77.3 µM) | 15 | 25 (≈ 77.3 µM) | 11 | 25 (≈ 77.3 µM) | 20 | 6.25 (≈ 19.3 µM) | 16 | 10 | 50 (≈ 155 µM) | 12 | 25 (≈ 77.3 µM) | 12 | 12.5 (≈ 38.7 µM) | 14 | 17 | 12.5 (≈ 38.7 µM) | Activity [3]: inactive; MIC [7]: 12.5 µg/mL (≈ 38.7 µM); MIC [11]: 12.5 µg/mL (≈ 38.7 µM); Activity [12]: inactive; Activity [14]: inactive; inhibition zone (IZ) [15]: 19 mm; MIC [15]: 6.25 µg/mL (≈ 19.3 µM)
CCN(CC)c1cccc(OCc2cc(=O)oc3ccc4ccccc4c23)c1 | 11 | 25 (≈ 66.9 µM) | 13 | 12.5 (≈ 33.5 µM) | 14 | 25 (≈ 66.9 µM) | 14 | 12.5 (≈ 33.5 µM) | 17 | 12.5 (≈ 33.5 µM) | 17 | 14 | 25 (≈ 66.9 µM) | 14 | 12.5 (≈ 33.5 µM) | 15 | 12.5 (≈ 33.5 µM) | 13 | 14 | 12.5 (≈ 33.5 µM) | Activity [3]: inactive; MIC [7]: 12.5 µg/mL (≈ 33.5 µM); MIC [11]: 12.5 µg/mL (≈ 33.5 µM); Activity [12]: inactive; Activity [14]: inactive; inhibition zone (IZ) [15]: 17 mm; MIC [15]: 12.5 µg/mL (≈ 33.5 µM)
CC(=O)Nc1cccc(OCc2cc(=O)oc3cc(C)ccc23)c1 | 15 | 12.5 (≈ 38.7 µM) | 9 | 25 (≈ 77.3 µM) | 16 | 12.5 (≈ 38.7 µM) | 10 | 25 (≈ 77.3 µM) | 19 | 6.25 (≈ 19.3 µM) | 16 | 9 | 50 (≈ 155 µM) | 14 | 12.5 (≈ 38.7 µM) | 14 | 12.5 (≈ 38.7 µM) | 14 | 16 | 12.5 (≈ 38.7 µM) | Activity [3]: inactive; MIC [7]: 12.5 µg/mL (≈ 38.7 µM); MIC [11]: 12.5 µg/mL (≈ 38.7 µM); Activity [12]: inactive; Activity [14]: inactive; inhibition zone (IZ) [15]: 18 mm; MIC [15]: 12.5 µg/mL (≈ 38.7 µM)
O=C(O)c1cn(C2CC2)c2cc(N3CCNCC3)c(F)cc2c1=O [CIPROFLOXACIN] | 20 | 6.25 (≈ 18.9 µM) | – | – | – | – | 18 | 12.5 (≈ 37.7 µM) | – | – | 25 | – | – | 23 | 6.25 (≈ 18.9 µM) | 21 | 6.25 (≈ 18.9 µM) | 21 | – | – | –
OC(Cn1cncn1)(Cn1cncn1)c1ccc(F)cc1F [FLUCONAZOLE] | – | – | 20 | 6.25 (≈ 20.4 µM) | 22 | 6.25 (≈ 20.4 µM) | – | – | 24 | 6.25 (≈ 20.4 µM) | – | 17 | 12.5 (≈ 40.8 µM) | – | – | – | – | – | 22 | 6.25 (≈ 20.4 µM) | inhibition zone (IZ) [15]: 23 mm; MIC [15]: 6.25 µg/mL (≈ 20.4 µM)
